Where two headings read alike, the source gives them in different places.
Key:
[1] = test system: V79 hamster lung cells; assay: Alamar blue assay (cell viability), V79 cells; assay type: cell-based
Experimental: (§1) V79 hamster lung cells, which are recommended in the OECD toxicology guidelines for hazard identification (i.e., cytotoxicity and genotoxicity) of chemicals, were purchased from the German Collection of Microorganisms and Cell Cultures (DSMZ, Braunschweig, Germany). They were cultured in Dulbecco´s modified Eagle medium and Ham´s F12 medium (DMEM/F12) (PromoCell, Heidelberg, Germany) containing 10% fetal calf serum at 37 °C in a humidified atmosphere containing 5% CO2. VC8 hamster cells were defective in DNA double-strand break (DSB) repair by homologous recombination (HR) due to the lack of functional BRCA2 protein [69, 70]. VC8 cells were provided by B. Kaina (Institute of Toxicology, Mainz, Germany). Nucleotide excision repair defective XPA and CSB deficient cells were also provided by B. Kaina and were described before. They were grown in DMEM containing 10% fetal calf serum. Human neuroblastoma cells (IMR-32 and SH-SY5Y) were purchased from the German Collection of Microorganisms and Cell Cultures (DSMZ, Braunschweig, Germany) and were used as a model of malignant cells. They were grown in DMEM or RPMI (Roswell park memorial institute) medium, respectively, containing 10% fetal calf serum. If not stated otherwise, HDACi were added to the exponentially growing cells and analyses were performed 6 h to 72 h later.
(§2) Cell viability was determined using the Alamar blue assay, which reflected the mitochondrial activity. Viable cells were characterized by an effective mitochondrial metabolization of the non-fluorescent dye resazurin (Sigma, Steinheim, Germany) to fluorescent resorufin (excitation: 535 nm, emission: 590 nm). Relative viability in the untreated control was set to 100%. In addition, the Neutral red assay, which measures the integrity of lysosomal membranes, was used to monitor cytotoxicity. To this end, cells were incubated with the Neutral red solution (0.01%) in an atmosphere containing 5% CO2 for 90 min before they were fixed (1% formaldehyde/1% CaCl2). Afterwards, the Neutral red that was taken up by the cells was extracted (50% ethanol/1% of acetic acid, 15 min at room temperature (RT)) and absorbance (540 nm) was measured. If not stated otherwise, data are shown as the mean ± standard deviation (SD) of two to three independent experiments each performed in quadruplicate. Approximate IC50 (~IC50, see Supplementary Table S1) were calculated from the corresponding dose-response curves.

[2] = test system: SH-SY5Y neuroblastoma cells; assay: Alamar blue assay (cell viability), SH-SY5Y cells; assay type: cell-based, human
Experimental: as §1, §2

[3] = test system: SH-SY5Y neuroblastoma cells; assay: Neutral red assay (cytotoxicity), SH-SY5Y cells; assay type: cell-based, human
Experimental: as §1, §2

[4] = test system: V79 cells; assay: Nuclear γH2AX foci and pan-staining (immunocytochemistry); assay type: cell-based, hamster; on gH2AX Foci: key: −: no effect; 0: weak effect; +: moderate effect; ++: strong effect; +++: very strong effect as compared to untreated controls; on gH2AX Pan-Stain: key: −: no effect; 0: weak effect; +: moderate effect; ++: strong effect; +++: very strong effect as compared to untreated controls
Experimental: The frequency of nuclear foci formed by S139 phosphorylated H2AX (γH2AX foci), which is a surrogate marker of DNA damage, especially DNA double-strand breaks (DSBs), was assayed by immunocytochemistry-based analysis. […] The appearance of nuclear 53BP1 foci, which is another marker of DSBs, was also determined by immunocytochemistry. Cells were fixed with 4% formaldehyde in phosphate-buffered saline (PBS) (MERCK, Darmstadt, Germany) (15 min, RT) followed by incubation with ice-cold methanol (≥20 min, −20 °C). After blocking (1 h, RT, blocking solution: 5% BSA (MERCK, Darmstadt, Germany) in PBS/0.3% Triton X-100 (Sigma, Steinheim, Germany)), incubation with γH2AX antibody and 53BP1 antibody was performed (1:500, overnight, 4 °C). After incubation with the secondary fluorescence-labeled antibody (1:500, 1 h, RT, in the dark), cells were mounted in Vectashield (Vector Laboratories (Burlingame, CA, USA)) containing DAPI. The number of nuclear γH2AX and 53BP1 foci was scored (Olympus BX43 fluorescence microscope). Only nuclei with distinct foci were evaluated and γH2AX pan-stained nuclei were excluded from the foci analyses. Data are shown as the mean ± SEM of three independent experiments with ≥50 nuclei analyzed per experimental condition.

[5] = test system: V79 cells; assay: DNA damage response (DDR) activation by Western blot; assay type: cell-based, hamster; on DDR Activation: key: −: no effect; 0: weak effect; +: moderate effect; ++: strong effect; +++: very strong effect as compared to untreated controls
Experimental: (§3) The activation of the DDR was investigated by Western blot analysis. To this end, total cell extracts were obtained by lysing an equal number of cells in Roti®-Load buffer (Carl Roth GmbH (Karlsruhe, Germany)) (5 min, RT). After sonication (EpiShear™ Probe sonicator, Active Motif, La Hulpe, Belgium), proteins were denatured by heating (5 min, 95 °C) and separated by SDS-PAGE (6% or 12.5% gel). Proteins were transferred onto a nitrocellulose membrane (GE Healthcare, Little Chalfont, UK) via the Protean Mini Cell System (BioRad (München, Germany)). The membrane was blocked with 5% non-fat milk in TBS/0.1% Tween 20 (MERCK, Darmstadt, Germany) (2 h, RT) and incubated with the corresponding primary antibody (1:1000, overnight, 4 °C). After washing with TBS/0.1% Tween 20, the secondary (peroxidase-conjugated) antibody was added (1:2000, 2 h, RT). The Fusion FX7 imaging system (PeqLab, Erlangen, Germany) was used for visualization of the bound antibodies. The following primary antibodies were used: Anti-Ser15 phosphorylated protein 53 (p-p53), anti-Talin-1, anti-Ser 345 checkpoint kinase 1 (p-Chk1), anti-cleaved caspase 3 and 7 (Cell Signaling, Beverly, MA, USA), anti-Ser824 phosphorylated Krüppel-associated box domain (KRAB)-associated protein-1 (p-Kap1), anti-Ser1981 phosphorylated ataxia telangiectasia mutated (pATM) and anti-Thr68 phosphorylated checkpoint kinase-2 (p-Chk2) (both Abcam, Cambridge, MA, USA), anti-Ser139 phosphorylated histone H2AX (γH2AX, Millipore, Billerica, MA, USA), and anti-β-actin (Santa Cruz, CA, USA). As secondary antibodies, horseradish peroxidase-conjugated secondary antibodies goat anti-mouse IgG and mouse anti-rabbit IgG (Rockland, Limerick, PA, USA) (2 h, RT) were used.

[6] = test system: V79 cells; assay: Caspase-3/-7 cleavage by Western blot (apoptosis); assay type: cell-based, hamster
Experimental: as §3

[7] = test system: VC8 hamster cells (BRCA1/2 defect); assay: Viability of DSB repair defective VC8 versus wild-type V79 cells (Alamar blue); assay type: cell-based; conditions: summary grade, V79 versus VC8; further: key: −: no effect; 0: weak effect; +: moderate effect; ++: strong effect; +++: very strong effect as compared to untreated controls
Experimental: as §1, §2

[8] = 24 h, approximate IC50, read-out: IC50 - 24 h Treatment, SH-SY5Y
[9] = 72 h, approximate IC50, read-out: IC50 - 72 h Treatment, SH-SY5Y

Nc1ccc(F)cc1NC(=O)c1ccc(CONC(=O)C=Cc2cccnc2)cc1 [MPK77]
IC50 ([1]; V79, 24 h after drug treatment (values match Alamar blue data of Table S1), read-out: Viability (IC50) 24 h): > 50 µM | IC50 ([1]; V79, 72 h after drug treatment (values match Alamar blue data of Table S1), read-out: Viability (IC50) 72 h): 50 µM | less cytotoxic to non-malignant V79 cells than to malignant neuroblastoma cells (IC50 based) ([1]; selection criterion, IC50 of Table S1): ≥ 10 fold | IC50 [2, 8]: 33 µM | IC50 [2, 9]: 17 µM | IC50 [3, 8]: > 50 µM | IC50 [3, 9]: 23 µM | > 5 < 30 Foci [%] ([4]; 10 µM, 24 h, V79): 49.9% | Pan-Stained [%] ([4]; 10 µM, 24 h, V79): 0.0% | ≤ 5 Foci [%] (cells with γH2AX foci) ([4]; 10 µM, 24 h, V79): 49.6% | ≥ 30 Foci [%] ([4]; 10 µM, 24 h, V79): 0.6% | > 5 < 30 Foci [%] ([4]; 50 µM, 24 h, V79): 41.5% | Pan-Stained [%] ([4]; 50 µM, 24 h, V79): 0.0% | ≤ 5 Foci [%] (cells with γH2AX foci) ([4]; 50 µM, 24 h, V79): 58.6% | ≥ 30 Foci [%] ([4]; 50 µM, 24 h, V79): 0.0% | > 5 < 30 Foci [%] ([4]; 100 µM, 24 h, V79): 47.9% | Pan-Stained [%] ([4]; 100 µM, 24 h, V79): 10.2% | ≤ 5 Foci [%] (cells with γH2AX foci) ([4]; 100 µM, 24 h, V79): 35.5% | ≥ 30 Foci [%] ([4]; 100 µM, 24 h, V79): 6.5% | formation of nuclear γH2AX foci ([4]; 24 h, V79, in words): relatively low number of γH2AX foci | gH2AX Foci ([4]; summary grade, V79): + | gH2AX Pan-Stain ([4]; summary grade, V79): 0 | activation of DDR factors (γH2AX, p-p53, p-Chk1, p-Chk2, p-Kap1 protein levels) ([5]; V79, Western blot, in words): failed to provoke a clear increase in γH2AX protein level | DDR Activation ([5]; summary grade, V79): − | activation of caspase-3 and -7 ([6]; 10 µM, 24 h, V79, in words): nor did they activate the executor caspases-3 and -7 | Apoptosis ([6]; summary grade, calculated on the basis of caspase-3,-7 cleavage and SubG1 population, V79): − | DSB Repair def. Cells [7]: +
